According to Sander's compilation of Henry's law constants (doi:10.1002/etc.5620180906):

Experiment: Henry solubility constant Hcp at 298.15 K (mol/(m3 Pa))
Details: reference: Bamford et al. (1999a)

Cc1cccc2c1ccc1ccccc12 [1-methylphenanthrene]
Henry solubility constant Hcp: 0.2

c1ccc2c(c1)-c1cccc3cccc-2c13 [benzo[jk]fluorene]
Henry solubility constant Hcp: 0.51

c1ccc2c(c1)Cc1ccccc1-2 [2,3-benzindene]
Henry solubility constant Hcp: 0.1

C1=Cc2cccc3cccc1c23 [acenaphthylene]
Henry solubility constant Hcp: 0.079

Cc1cccc2ccccc12 [1-methylnaphthalene]
Henry solubility constant Hcp: 0.021

Cc1ccc2ccccc2c1 [2-methylnaphthalene]
Henry solubility constant Hcp: 0.019

c1cc2c3c(cccc3c1)CC2 [acenaphthene]
Henry solubility constant Hcp: 0.054

c1ccc2c(c1)ccc1c3ccccc3ccc21 [chrysene]
Henry solubility constant Hcp: 1.9

c1ccc2c(c1)ccc1ccccc12 [phenanthrene]
Henry solubility constant Hcp: 0.23

c1ccc2cc3ccccc3cc2c1 [anthracene]
Henry solubility constant Hcp: 0.18

c1ccc2c(c1)Cc1c-2ccc2ccccc12 [benzo[a]fluorene]
Henry solubility constant Hcp: 0.37
